Measured values: patent US11071300B2, “Pesticidally active pyrazole derivatives” (SYNGENTA PARTICIPATIONS AG, priority 2017, dated 2021)

How the values were obtained:
Type in all cases: in vivo
Spodoptera littoralis = Spodoptera littoralis (Egyptian cotton leaf worm) leaf disc test; details: foliar, 72 h, application rate 200 ppm, cotton leaf discs sprayed, L1 larvae, 3 days after infestation, read-out: control (at least one of mortality, anti-feedant effect, growth inhibition)
Method in brief: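 Five first-instar larvae per disc were placed on dried, sprayed cotton leaf discs held on agar. Test solutions were aqueous, made from 10′000 ppm DMSO stocks. At day 3, control was counted when mortality, feeding deterrence or growth inhibition exceeded the untreated discs.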

Plutella xylostella = Plutella xylostella (diamond back moth) artificial diet test; details: 120 h, application rate 200 ppm, artificial diet, L2 larvae, 5 days after infestation, read-out: control (mortality and growth inhibition)
Procedure: Plutella xylostella (Diamond Back Moth):
(§1) 24-well microtiter plates with artificial diet were treated with aqueous test solutions prepared from 10′000 ppm DMSO stock solutions by pipetting. After drying, the plates were infested with L2 larvae (10 to 15 per well). The samples were assessed for mortality and growth inhibition in comparison to untreated samples 5 days after infestation.

Diabrotica Balteata = assay: Diabrotica balteata (corn root worm) maize sprout test; details: 96 h, application rate 200 ppm, maize sprouts sprayed, L2 larvae, 4 days after infestation, read-out: control (mortality and growth inhibition)
Procedure: Diabrotica Balteata, (Corn Root Worm)
as §1, with “Maize sprouts, placed on an agar layer in 24-well” for “24-well”, “plates” for “plates with artificial diet”, “spraying.” for “pipetting.”, “(6” for “(10”, “10” for “15”, “4” for “5”

Thrips tabaci = Thrips tabaci (onion thrips) leaf disc test; details: foliar, 144 h, application rate 200 ppm, sunflower leaf discs sprayed, mixed ages, 6 days after infestation, read-out: control (mortality)
Procedure: Thrips tabaci (Onion Thrips):
(§2) Sunflower leaf discs were placed on agar in 24-well microtiter plates and sprayed with aqueous test solutions prepared from 10′000 ppm DMSO stock solutions. After drying the leaf discs were infested with a thrips population of mixed ages. The samples were assessed for mortality 6 days after infestation.

Tetranychus urticae = Tetranychus urticae (two-spotted spider mite) leaf disc test; details: foliar, 192 h, application rate 200 ppm, bean leaf discs sprayed, 8 days after infestation, read-out: control (mortality on mixed population, mobile stages)
Procedure: Tetranychus urticae (Two-Spotted Spider Mite):
as §2, with “Bean” for “Sunflower”, “discs” for “discs were placed”, “were” for “and”, “mite” for “thrips”, “on mixed population (mobile stages) 8” for “6”

Euschistus heros = Euschistus heros (neotropical brown stink bug) soybean leaf test; details: 120 h, application rate 200 ppm, soybean leaves sprayed, N2 nymphs, 5 days after infestation, read-out: control (mortality and growth inhibition)
Procedure: Euschistus heros (Neotropical Brown Stink Bug):
Soybean leaves on agar in 24-well microtiter plates were sprayed with aqueous test solutions prepared from 10′000 ppm DMSO stock solutions. After drying the leaves were infested with N2 nymphs. The samples were assessed for mortality and growth inhibition in comparison to untreated samples 5 days after infestation.

Myzus persicae = Myzus persicae (green peach aphid) leaf disc test; details: foliar, 144 h, application rate 200 ppm, sunflower leaf discs sprayed, mixed ages, 6 DAT, read-out: control (mortality)
Procedure: Myzus persicae (Green Peach Aphid):
Sunflower leaf discs were placed on agar in a 24-well microtiter plate and sprayed with test solutions at an application rate of 200 ppm. After drying, the leaf discs were infested with an aphid population of mixed ages. After an incubation period of 6 DAT, samples were checked for mortality.

Cn1nc(OS(=O)(=O)C(F)(F)C(F)(F)Cl)c(C(F)(F)F)c1-n1cc(-c2ccc(Cl)c(C(=O)NC3CC3)c2)cn1 [Compound 9, [5-[4-[4-chloro-3-(cyclopropylcarbamoyl)phenyl]pyrazol-1-yl]-1-methyl-4-(trifluoromethyl)pyrazol-3-yl] 2-chloro-1,1,2,2-tetrafluoro-ethanesulfonate]
≥ 80%: percent control (mortality, anti-feedant effect or growth inhibition) at 200 ppm (Spodoptera littoralis) | mortality at 200 ppm (Plutella xylostella) | mortality at 200 ppm (Diabrotica Balteata) | mortality at 200 ppm (Thrips tabaci) | mortality at 200 ppm (Tetranychus urticae) | mortality at 200 ppm (Euschistus heros) | mortality at 200 ppm (Myzus persicae)

CCC(=O)N(C(=O)c1cc(-c2cnn(-c3c(C(F)(F)F)c(OS(=O)(=O)C(F)(C(F)(F)F)C(F)(F)F)nn3C)c2)ccc1Cl)C1(C#N)CC1 [Compound 54, [5-[4-[4-chloro-3-[(1-cyanocyclopropyl)-propanoyl-carbamoyl]phenyl]pyrazol-1-yl]-1-methyl-4-(trifluoromethyl)pyrazol-3-yl] 1,1,1,2,3,3,3-heptafluoropropane-2-sulfonate]
≥ 80%: percent control (mortality, anti-feedant effect or growth inhibition) at 200 ppm (Spodoptera littoralis) | mortality at 200 ppm (Plutella xylostella) | mortality at 200 ppm (Diabrotica Balteata) | mortality at 200 ppm (Thrips tabaci) | mortality at 200 ppm (Tetranychus urticae) | mortality at 200 ppm (Euschistus heros) | mortality at 200 ppm (Myzus persicae)

CC(=O)N(C(=O)c1cc(-c2cnn(-c3c(C(F)(F)F)c(OS(=O)(=O)C(F)(C(F)(F)F)C(F)(F)F)nn3C)c2)ccc1Cl)C1(C#N)CC1 [Compound 46, [5-[4-[3-[acetyl-(1-cyanocyclopropyl)carbamoyl]-4-chloro-phenyl]pyrazol-1-yl]-1-methyl-4-(trifluoromethyl)pyrazol-3-yl] 1,1,1,2,3,3,3-heptafluoropropane-2-sulfonate]
≥ 80%: percent control (mortality, anti-feedant effect or growth inhibition) at 200 ppm (Spodoptera littoralis) | mortality at 200 ppm (Plutella xylostella) | mortality at 200 ppm (Diabrotica Balteata) | mortality at 200 ppm (Thrips tabaci) | mortality at 200 ppm (Tetranychus urticae) | mortality at 200 ppm (Euschistus heros) | mortality at 200 ppm (Myzus persicae)

CCN(C(=O)c1cc(-c2cnn(-c3c(C(F)(F)F)c(OS(=O)(=O)C(F)(C(F)(F)F)C(F)(F)F)nn3C)c2)ccc1Cl)C1(C#N)CC1 [Compound 45, [5-[4-[4-chloro-3-[(1-cyanocyclopropyl)-ethyl-carbamoyl]phenyl]pyrazol-1-yl]-1-methyl-4-(trifluoromethyl)pyrazol-3-yl] 1,1,1,2,3,3,3-heptafluoropropane-2-sulfonate]
≥ 80%: percent control (mortality, anti-feedant effect or growth inhibition) at 200 ppm (Spodoptera littoralis) | mortality at 200 ppm (Plutella xylostella) | mortality at 200 ppm (Diabrotica Balteata) | mortality at 200 ppm (Thrips tabaci) | mortality at 200 ppm (Tetranychus urticae) | mortality at 200 ppm (Euschistus heros) | mortality at 200 ppm (Myzus persicae)

CN(C(=O)c1cc(-c2cc(-c3c(C(F)(F)F)c(OS(=O)(=O)C(F)(C(F)(F)F)C(F)(F)F)nn3C)no2)ccc1Cl)C1(C#N)CC1 [Compound 37, [5-[5-[4-chloro-3-[(1-cyanocyclopropyl)-methyl-carbamoyl]phenyl]isoxazol-3-yl]-1-methyl-4-(trifluoromethyl)pyrazol-3-yl] 1,1,1,2,3,3,3-heptafluoropropane-2-sulfonate]
≥ 80%: percent control (mortality, anti-feedant effect or growth inhibition) at 200 ppm (Spodoptera littoralis) | mortality at 200 ppm (Plutella xylostella) | mortality at 200 ppm (Diabrotica Balteata) | mortality at 200 ppm (Thrips tabaci) | mortality at 200 ppm (Tetranychus urticae) | mortality at 200 ppm (Euschistus heros) | mortality at 200 ppm (Myzus persicae)

Cn1nc(OS(=O)(=O)C(F)(C(F)(F)F)C(F)(F)F)c(C(F)(F)F)c1-n1cc(-c2ccc(Cl)c(C(=O)N(CC#N)C3(C#N)CC3)c2)cn1 [Compound 49, [5-[4-[4-chloro-3-[(1-cyanocyclopropyl)-(cyanomethyl)carbamoyl]phenyl]pyrazol-1-yl]-1-methyl-4-(trifluoromethyl)pyrazol-3-yl] 1,1,1,2,3,3,3-heptafluoropropane-2-sulfonate]
≥ 80%: percent control (mortality, anti-feedant effect or growth inhibition) at 200 ppm (Spodoptera littoralis) | mortality at 200 ppm (Plutella xylostella) | mortality at 200 ppm (Diabrotica Balteata) | mortality at 200 ppm (Thrips tabaci) | mortality at 200 ppm (Tetranychus urticae) | mortality at 200 ppm (Euschistus heros) | mortality at 200 ppm (Myzus persicae)

C#CCN(C(=O)c1cc(-c2cnn(-c3c(C(F)(F)F)c(OS(=O)(=O)C(F)(C(F)(F)F)C(F)(F)F)nn3C)c2)ccc1Cl)C1(C#N)CC1 [Compound 50, [5-[4-[4-chloro-3-[(1-cyanocyclopropyl)-prop-2-ynyl-carbamoyl]phenyl]pyrazol-1-yl]-1-methyl-4-(trifluoromethyl)pyrazol-3-yl] 1,1,1,2,3,3,3-heptafluoropropane-2-sulfonate]
≥ 80%: percent control (mortality, anti-feedant effect or growth inhibition) at 200 ppm (Spodoptera littoralis) | mortality at 200 ppm (Plutella xylostella) | mortality at 200 ppm (Diabrotica Balteata) | mortality at 200 ppm (Thrips tabaci) | mortality at 200 ppm (Tetranychus urticae) | mortality at 200 ppm (Euschistus heros) | mortality at 200 ppm (Myzus persicae)

Cn1nc(OS(=O)(=O)C(F)(C(F)(F)F)C(F)(F)F)c(C(F)(F)F)c1-n1cc(-c2ccc(Cl)c(C(=O)N(C=O)C3(C#N)CC3)c2)cn1 [Compound 57, [5-[4-[4-chloro-3-[(1-cyanocyclopropyl)-formyl-carbamoyl]phenyl]pyrazol-1-yl]-1-methyl-4-(trifluoromethyl)pyrazol-3-yl] 1,1,1,2,3,3,3-heptafluoropropane-2-sulfonate]
≥ 80%: percent control (mortality, anti-feedant effect or growth inhibition) at 200 ppm (Spodoptera littoralis) | mortality at 200 ppm (Plutella xylostella) | mortality at 200 ppm (Diabrotica Balteata) | mortality at 200 ppm (Thrips tabaci) | mortality at 200 ppm (Tetranychus urticae) | mortality at 200 ppm (Euschistus heros) | mortality at 200 ppm (Myzus persicae)

COCN(C(=O)c1cc(-c2cnn(-c3c(C(F)(F)F)c(OS(=O)(=O)C(F)(C(F)(F)F)C(F)(F)F)nn3C)c2)ccc1Cl)C1(C#N)CC1 [Compound 48, [5-[4-[4-chloro-3-[(1-cyanocyclopropyl)-(methoxymethyl)carbamoyl]phenyl]pyrazol-1-yl]-1-methyl-4-(trifluoromethyl)pyrazol-3-yl] 1,1,1,2,3,3,3-heptafluoropropane-2-sulfonate]
≥ 80%: percent control (mortality, anti-feedant effect or growth inhibition) at 200 ppm (Spodoptera littoralis) | mortality at 200 ppm (Plutella xylostella) | mortality at 200 ppm (Diabrotica Balteata) | mortality at 200 ppm (Thrips tabaci) | mortality at 200 ppm (Tetranychus urticae) | mortality at 200 ppm (Euschistus heros) | mortality at 200 ppm (Myzus persicae)
